{"source": "patent US20080311185A1", "about": "“Deregulated Genes and/or Processes in Inflammatory Arthritis” (priority 2005, published 2008)", "key": {"[1]": {"tested_on": "HeLa cells", "details": "Kulms et al, 2002; cited from earlier work"}, "[2]": {"tested_on": "Tg197 synovial fibroblasts", "assay": "Adhesion assay of Tg197 synovial fibroblasts after drug treatment", "format": "cell-based, mouse", "details": "drug treatment 2 h at 37° C., FIG. 8", "protocol": "(§1) FIG. 8. Adhesion/Migration assays showing the effect of Lat-A on Tg197 actin-cytoskeleton properties.\nAdhesion assays were performed on Cytometrix adhesion strips (Chemicon) coated with human fibronectin, vitronectin, laminin and collagen I, according to the manufacturer instructions.\n(§2) Disruption of actin cytoskeleton was induced with 4 μg/ml of Latrunculin A (Sigma) for 2 h at 37° C. as previously described (Spector et al, 1989). As control of TNFα involvement in actin-cytoskeleton organisation 1 μg/ml of anti-TNF (Infliximab) was added on the cells for the same period of time."}, "[3]": {"tested_on": "Tg197 synovial fibroblasts", "assay": "Migration assay of Tg197 synovial fibroblasts after drug treatment", "format": "cell-based, mouse", "details": "drug treatment 2 h at 37° C., compare to Wt, FIG. 8", "protocol": "as §1, §2"}, "[4]": {"tested_on": "Tg197 synovial fibroblasts", "assay": "Proliferation assay of Tg197 synovial fibroblasts after drug treatment", "format": "cell-based, mouse", "details": "FIG. 9", "protocol": "FIG. 7. […] Mean averages of triplicates with mean background (adhesion to BSA) values subtracted. Representative experiment out of three (t-test; P<0.05). (C) DNA synthesis/proliferation assay in the presence or absence of 10% FBS, 48 h after treatment. Values represent [3H]Thymidine incorporation (×10^3). Mean average of triplicates (t test; P<0.05). (D) Assay of wound-healing treated with Mytomycin C for 2 h. Pictures were taken at Oh and 24 h after the wound (Oh not shown). (E) TNF cytotoxicity assay with cyclohexamide. After 24 h survival was determined using the crystal violet assay. (F) Apoptosis assay using 30-300 μM etoposide. (G) Apoptosis assay using 0.01-1 μM staurosporine.\nas §2"}, "[5]": {"tested_on": "Tg197 synovial fibroblasts", "assay": "Apoptosis assay using staurosporine as inducer of cell death", "format": "cell-based, mouse", "details": "FIG. 10", "protocol": "Confluent mouse synovial fibroblasts were washed twice with phosphate-buffered saline (PBS) and placed in DMEM without serum for 24 h. The following day 1.5×10^4 cells were plated into each well of a 96-well flat-bottom plate (Costar, Corning Inc.) in 100 μl of media plus serum. After 24 h, cells were treated with 12.5-100 ng/ml TNFα plus 0.5-3 μg/ml cyclohexamide (CHX), 30-300 μM Etoposide and 0.01-1 μM Staurosporine, for 24 h at 37° C. overnight. Cell survival was determined using the crystal violet assay. The absorbance at 570 nm was determined on a microplate reader (SPECTRAmax PLUS^384, Molecular Devices, Sunnyvale, Calif., USA), as previously described (Aidinis et al, 2003). Results are expressed as the means±S.E. of one representative experiment performed in triplicate. Statistical analysis was performed using Student's t test, with a level of significance set at p<0.05.\nas §2"}}, "note": "Starred links: 1 amine or outer side, 2 acyl side, 3 side chain; linkers in the order of their positions; H or OH if unused. Positions of bridges follow the written chain, without caps; N, C: chain ends. Non-standard residues stand in square brackets, D forms with d. Residues, ends and D or L forms follow the SMILES beside them. Trp(2-yl) = O=C([C@H](Cc1c([*:3])[nH]c2ccccc12)N[*:1])[*:2]; Leu(4R-OH,5-OH) = C[C@](O)(CO)C[C@H](N)C(=O)O; cisHyp = O=C(O)[C@@H]1C[C@H](O)CN1"}
{"molecule": "C=C1[C@@H](C)[C@H]2[C@H](Cc3ccccc3)NC(=O)[C@]23[C@H](OC(C)=O)/C=C/[C@@](C)(O)C(=O)[C@@H](C)C/C=C/[C@H]3[C@@H]1O", "note": "[Cytochalasin D]", "values": [{"measurement": "apoptosis in HeLa cells", "setting": "[1]", "result": "enhances apoptosis"}]}
{"molecule": "C/C1=C/C(=O)O[C@@H]2C[C@@H](CC[C@H](C)/C=C\\C=C\\CC1)O[C@@](O)([C@@H]1CSC(=O)N1)C2", "note": "[Lat-A, Latrunculin A]", "values": [{"measurement": "adhesion of TgSF's", "setting": "[2]", "result": "decreased adhesion"}, {"measurement": "migration of TgSF's", "setting": "[3]", "result": "migration seems to be increased"}, {"measurement": "proliferation levels of TgSFs", "setting": "[4]", "result": "decline lower even than the levels of WtSFs"}, {"measurement": "resistance to apoptosis", "setting": "[5]", "result": "decreased resistance to apoptosis at the levels of the Wt SFs"}]}
{"molecule": "C[C@@H]1NC(=O)[C@H](C[C@@](C)(O)CO)NC(=O)[C@@H]2Cc3c([nH]c4ccccc34)SC[C@H](NC(=O)[C@@H]([C@H](C)O)NC1=O)C(=O)N1C[C@@H](O)C[C@H]1C(=O)N[C@@H](C)C(=O)N2", "note": "[phalloidin] (cyclo(A[dT]C[cisHyp]A[Trp(2-yl)][Leu(4R-OH,5-OH)]); thioether 3-6)", "values": [{"measurement": "apoptosis in HeLa cells", "setting": "[1]", "result": "does not affect apoptosis"}]}
{"molecule": "TNFα", "values": [{"measurement": "proliferation levels of TgSFs", "setting": "[4]", "result": "do not have an effect"}]}
{"molecule": "anti-TNF: anti-TNF (Infliximab), control of TNFα involvement in actin-cytoskeleton organisation", "values": [{"measurement": "adhesion of TgSF's", "setting": "[2]", "result": "do not show altered adhesion/migration properties"}, {"measurement": "migration of TgSF's", "setting": "[3]", "result": "do not show altered adhesion/migration properties"}]}
